US11841367B2, “TLR agonist-enhanced in vitro assay of cell mediated immune responsiveness” (Cellestis Limited, priority 2011, dated 2023)

Tests used:
Format in all cases: cell-based, human
whole blood [1] = experiment: Background IFN-γ responses to R848 alone in QFT-Nil tubes (whole blood, ELISA); settings: for IFNγ concentration of the plasma, background response, Mean: QFT-Nil tube, 1 ml whole blood, 37° C., 16-24 hours
whole blood [2] = experiment: IFN-γ responses of whole blood in QFT-Nil tubes with EBV EBNA1 pepMix plus R848; settings: for IFNγ response to antigen+R848 minus background to R848 alone, Mean: 16-24 hours
whole blood [3] = experiment: IFN-γ responses of whole blood in QFT-CMV tubes plus R848; settings: for IFNγ response to antigen+R848 minus background to R848 alone, Mean: 16-24 hours
whole blood [4] = experiment: Clinical study: QFT-TB response with added R848 in TB patients, TB suspects and household contacts; settings: for effect on QFT-TB response: subjects positive to QFT-TB test alone

## CCOCc1nc2c(N)nc3ccccc3c2n1CC(C)(C)O [R848]
Whole blood [1]; 0.1 μg/ml R848, QFT-Nil tubes
  background responses to R848 alone: significant background responses seen in many donors
Whole blood [1]; R848 0.01 μg/ml alone
  IFNγ concentration of the plasma, background response, Mean: −0.009677 1 U/ml
Whole blood [1]; R848 0.02 μg/ml alone
  IFNγ concentration of the plasma, background response, Mean: 0.0100 1 U/ml
Whole blood [1]; R848 0.025 μg/ml alone
  IFNγ concentration of the plasma, background response, Mean: 0.0330 1 U/ml
Whole blood [1]; R848 0.03 μg/ml alone
  IFNγ concentration of the plasma, background response, Mean: 0.0925 1 U/ml
Whole blood [1]; R848 0.04 μg/ml alone
  IFNγ concentration of the plasma, background response, Mean: 0.5144 1 U/ml
Whole blood [1]; R848 0.05 μg/ml alone
  IFNγ concentration of the plasma, background response, Mean: 1.084 1 U/ml
Whole blood [1]; R848 0.1 μg/ml alone
  IFNγ concentration of the plasma, background response, Mean: 21.58 1 U/ml
Whole blood [1]; below 0.05 μg/ml R848, QFT-Nil tubes
  background responses to R848 alone: not significant
Whole blood [2]; 0.05 μg/ml R848 added to EBV EBNA1 peptide pool
  boost in EBV responses: significant boost
Whole blood [2]; 0.5 μg/ml EBV EBNA 1 pepMix + 0.01 μg/ml R848, whole blood
  IFNγ response to antigen+R848 minus background to R848 alone, Mean: 2.857 IU/ml
Whole blood [2]; 0.5 μg/ml EBV EBNA 1 pepMix + 0.05 μg/ml R848, whole blood
  IFNγ response to antigen+R848 minus background to R848 alone, Mean: 18.32 IU/ml
Whole blood [2]; 0.5 μg/ml EBV EBNA 1 pepMix + 0.1 μg/ml R848, whole blood
  IFNγ response to antigen+R848 minus background to R848 alone, Mean: 29.57 IU/ml
Whole blood [2]; EBV and CMV antigens, whole blood
  responses to the antigen-R848 combined stimuli versus sum of separate responses: greater than that seen by adding together the responses to the antigen and R848 alone individually
Whole blood [3]; 0.05 μg/ml R848 added
  boost in responses in QFT-CMV tubes: not as large as that seen for EBV
Whole blood [3]; 0.1 μg/ml R848 added
  boost in responses in QFT-CMV tubes: much greater
Whole blood [3]; QFT-CMV tube + 0.05 μg/ml R848, whole blood
  IFNγ response to antigen+R848 minus background to R848 alone, Mean: 15.96 IU/ml
Whole blood [3]; QFT-CMV tube + 0.1 μg/ml R848, whole blood
  IFNγ response to antigen+R848 minus background to R848 alone, Mean: 79.53 IU/ml
Whole blood [4]; R848 0.05 μg/ml, P<0.001
  effect on QFT-TB response: significantly enhanced
Whole blood [4]; R848 0.1 μg/ml, P<0.0001
  effect on QFT-TB response: significantly enhanced
Whole blood [4]; both R848 concentrations tested, both patients TB suspects
  patients negative with the current QFT-TB tube who became positive when R848 was added: Two
